By IC50 is commonly meant the concentration needed to halve the response being measured.

Each structure is given as a SMILES string.

One assay addresses T1, murine RIP1 (Mus musculus, UniProt Q60855).
T1 construct: U937 and L929 cells were obtained from the American Type Culture Collection; host or cells: L929
T1 sequence (Q60855 1-656): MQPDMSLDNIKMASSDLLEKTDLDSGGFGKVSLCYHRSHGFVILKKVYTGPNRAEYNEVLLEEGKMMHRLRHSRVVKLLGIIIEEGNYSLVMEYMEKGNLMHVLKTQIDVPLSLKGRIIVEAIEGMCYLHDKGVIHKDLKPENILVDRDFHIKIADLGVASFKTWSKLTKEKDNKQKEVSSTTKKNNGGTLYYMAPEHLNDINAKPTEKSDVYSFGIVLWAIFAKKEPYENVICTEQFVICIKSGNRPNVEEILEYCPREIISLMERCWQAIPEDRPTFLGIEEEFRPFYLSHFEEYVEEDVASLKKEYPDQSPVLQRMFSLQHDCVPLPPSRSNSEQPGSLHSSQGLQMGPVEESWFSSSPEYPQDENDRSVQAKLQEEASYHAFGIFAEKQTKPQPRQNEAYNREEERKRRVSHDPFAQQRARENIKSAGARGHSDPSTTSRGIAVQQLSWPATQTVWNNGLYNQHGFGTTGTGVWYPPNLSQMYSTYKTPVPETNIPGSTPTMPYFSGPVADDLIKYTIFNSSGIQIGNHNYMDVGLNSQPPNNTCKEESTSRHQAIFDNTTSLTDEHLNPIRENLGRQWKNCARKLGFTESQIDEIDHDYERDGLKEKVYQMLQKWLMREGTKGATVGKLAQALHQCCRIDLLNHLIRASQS
As to the kind of experiment: L929 cell necroptosis assay (TNFa + zVAD, CellTiter-Glo). Format: cell-based.

The next assay deals with T2, RIPK1 (Homo sapiens, UniProt Q13546).
T2 sequence (Q13546 1-671): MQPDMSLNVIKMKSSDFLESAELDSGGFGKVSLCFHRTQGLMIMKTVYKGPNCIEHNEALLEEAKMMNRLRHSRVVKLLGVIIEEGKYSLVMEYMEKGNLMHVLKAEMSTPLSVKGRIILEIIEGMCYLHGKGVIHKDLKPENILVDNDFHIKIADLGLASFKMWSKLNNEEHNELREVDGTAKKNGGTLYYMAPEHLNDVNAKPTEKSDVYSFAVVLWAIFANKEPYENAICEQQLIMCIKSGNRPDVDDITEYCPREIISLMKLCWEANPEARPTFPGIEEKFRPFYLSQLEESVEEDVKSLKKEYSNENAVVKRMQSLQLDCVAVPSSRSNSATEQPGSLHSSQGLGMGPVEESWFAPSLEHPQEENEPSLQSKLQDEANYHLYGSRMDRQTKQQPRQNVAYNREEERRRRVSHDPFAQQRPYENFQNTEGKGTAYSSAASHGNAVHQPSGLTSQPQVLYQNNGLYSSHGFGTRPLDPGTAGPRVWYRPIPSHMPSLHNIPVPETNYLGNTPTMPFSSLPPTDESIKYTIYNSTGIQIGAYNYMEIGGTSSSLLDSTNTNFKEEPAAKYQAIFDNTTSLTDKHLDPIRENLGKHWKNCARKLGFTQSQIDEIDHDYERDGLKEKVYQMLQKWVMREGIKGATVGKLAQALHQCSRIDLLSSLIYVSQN
As to the kind of experiment: RIPK1 ADP-Glo biochemical kinase assay. The conditions noted are these: 30 min at 30° C. The protocol: The final reaction volume was 5.0 μl.
Adding 5 μl of ADP-Glo™ terminated the reaction.
In general terms: In ADP-Glo the light output rises with the ADP produced.

The next assay concerns the target T3, human RIP1 (Homo sapiens, UniProt Q13546).
T3 construct: U937 and L929 cells were obtained from the American Type Culture Collection; host or cells: U937
T3 sequence (Q13546 1-671): T2 sequence (Q13546 1-671)
The assay is described as follows: U937 cell necroptosis assay (TNFa + zVAD, CellTiter-Glo). Format: cell-based. The following applies: U937 Zvad TNF CTG Recovery, U937 cells, TNFa 2 ng/mL + zVAD-fmk, 18 hours. A general note: Cellular ATP, detected with luciferase, serves as a proxy for viable cell number.

Consider `[2H]C([2H])([2H])N1C(=O)[C@@H](NC(=O)n2cc(Cc3ccc(F)cc3)cn2)CCc2ccc(C#CC(C)(C)O)cc21` [Compound I-36, 4-(4-Fluorobenzyl)-N-(8-(3-hydroxy-3-methylbut-1-yn-1-yl)-1-(methyl-d)-2-oxo-2,3,4,5-tetrahydro-1H-benzo[b]azepin-3-yl)-1H-pyrazole-1-carboxamide], for which the IC50 at murine RIP1 turned out to be 4.5 nM; at RIPK1 it was 39.2 nM; on human RIP1 it was 0.5 nM.

Regarding `CN1CCN(C(C)(C)C#Cc2ccc3c(c2)N(C)C(=O)[C@@H](NC(=O)c2cc(Oc4ccccc4)ccn2)CC3)CC1` [Compound I-37, (S)—N-(1-Methyl-8-(3-methyl-3-(4-methylpiperazin-1-yl)but-1-yn-1-yl)-2-oxo-2,3,4,5-tetrahydro-1H-benzo[b]azepin-3-yl)-4-phenoxypicolinamide], the IC50 at murine RIP1 came out at 1940 nM; on RIPK1, 12.7 nM; at human RIP1 it was 21 nM.

The values are drawn from US20210070735A1, “RIP1 INHIBITORY COMPOUNDS AND METHODS FOR MAKING AND USING THE SAME” (Rigel Pharmaceuticals, Inc., priority 2019, published 2021).
